Reference: patent publication US20250352520A1, “USE OF DEXPRAMIPEXOLE FOR THE TREATMENT OF EOSINOPHILIC COPD” (Areteia Therapeutics, Inc., priority 2024, published 2025)
Where two headings read alike, the source gives them in different places.

Details: Week 4

## CCCN[C@@H]1CCc2nc(N)sc2C1 [Dexpramipexole, (6R)-2-amino-4,5,6,7-tetrahydro-6-(propylamino)benzothiazole]
<50% AEC reduction at Week 16
  Pre-BD FEF25-75 % change from baseline, Max: −9%
  Pre-BD FEF25-75 % change from baseline, Mean ± SD: −19.8 ± 9.58%
  Pre-BD FEF25-75 % change from baseline, Median: −19.3%
  Pre-BD FEF25-75 % change from baseline, Min: −32%
  Pre-BD FEF25-75 % change from baseline, Q1: −27%
  Pre-BD FEF25-75 % change from baseline, Q3: −13%
  Pre-BD FEF25-75 Observed, Max: 950 mL/s
  Pre-BD FEF25-75 Observed, Mean ± SD: 507.5 ± 333.30 mL/s
  Pre-BD FEF25-75 Observed, Median: 440.0 mL/s
  Pre-BD FEF25-75 Observed, Min: 200 mL/s
  Pre-BD FEF25-75 Observed, Q1: 255 mL/s
  Pre-BD FEF25-75 Observed, Q3: 760 mL/s
  Pre-BD FEF25-75 change from baseline, Max: -30 mL/s
  Pre-BD FEF25-75 change from baseline, Mean ± SD: -167.5 ± 191.03 mL/s
  Pre-BD FEF25-75 change from baseline, Median: -100.0 mL/s
  Pre-BD FEF25-75 change from baseline, Min: -440 mL/s
  Pre-BD FEF25-75 change from baseline, Q1: -300 mL/s
  Pre-BD FEF25-75 change from baseline, Q3: -35 mL/s
  Pre-BD FEV1 % change from baseline, Max: −1%
  Pre-BD FEV1 % change from baseline, Mean ± SD: −16.4 ± 15.81%
  Pre-BD FEV1 % change from baseline, Median: −13.3%
  Pre-BD FEV1 % change from baseline, Min: −37%
  Pre-BD FEV1 % change from baseline, Q1: −28%
  Pre-BD FEV1 % change from baseline, Q3: −4%
  Pre-BD FEV1 Observed, Max: 1680 mL
  Pre-BD FEV1 Observed, Mean ± SD: 1260.0 ± 511.53 mL
  Pre-BD FEV1 Observed, Median: 1420.0 mL
  Pre-BD FEV1 Observed, Min: 520 mL
  Pre-BD FEV1 Observed, Q1: 935 mL
  Pre-BD FEV1 Observed, Q3: 1585 mL
  Pre-BD FEV1 change from baseline, Max: -20 mL
  Pre-BD FEV1 change from baseline, Mean ± SD: -212.5 ± 173.47 mL
  Pre-BD FEV1 change from baseline, Median: -215.0 mL
  Pre-BD FEV1 change from baseline, Min: -400 mL
  Pre-BD FEV1 change from baseline, Q1: -355 mL
  Pre-BD FEV1 change from baseline, Q3: -70 mL
  Pre-BD FVC % change from baseline, Max: 0%
  Pre-BD FVC % change from baseline, Mean ± SD: −9.0 ± 13.97%
  Pre-BD FVC % change from baseline, Median: −2.9%
  Pre-BD FVC % change from baseline, Min: −30%
  Pre-BD FVC % change from baseline, Q1: −17%
  Pre-BD FVC % change from baseline, Q3: −1%
  Pre-BD FVC Observed, Max: 3480 mL
  Pre-BD FVC Observed, Mean ± SD: 2755.0 ± 729.41 mL
  Pre-BD FVC Observed, Median: 2875.0 mL
  Pre-BD FVC Observed, Min: 1790 mL
  Pre-BD FVC Observed, Q1: 2215 mL
  Pre-BD FVC Observed, Q3: 3295 mL
  Pre-BD FVC change from baseline, Max: -10 mL
  Pre-BD FVC change from baseline, Mean ± SD: -240.0 ± 350.90 mL
  Pre-BD FVC change from baseline, Median: -95.0 mL
  Pre-BD FVC change from baseline, Min: -760 mL
  Pre-BD FVC change from baseline, Q1: -450 mL
  Pre-BD FVC change from baseline, Q3: -30 mL
  Pre-BD Peak Flow % change from baseline, Max: 428%
  Pre-BD Peak Flow % change from baseline, Mean ± SD: 90.4 ± 224.72%
  Pre-BD Peak Flow % change from baseline, Median: −20.4%
  Pre-BD Peak Flow % change from baseline, Min: −25%
  Pre-BD Peak Flow % change from baseline, Q1: −24%
  Pre-BD Peak Flow % change from baseline, Q3: 205%
  Pre-BD Peak Flow Observed, Max: 211 L/min
  Pre-BD Peak Flow Observed, Mean ± SD: 167.5 ± 49.57 L/min
  Pre-BD Peak Flow Observed, Median: 180.5 L/min
  Pre-BD Peak Flow Observed, Min: 98 L/min
  Pre-BD Peak Flow Observed, Q1: 133 L/min
  Pre-BD Peak Flow Observed, Q3: 202 L/min
  Pre-BD Peak Flow change from baseline, Max: 171 L/min
  Pre-BD Peak Flow change from baseline, Mean ± SD: 11.0 ± 107.23 L/min
  Pre-BD Peak Flow change from baseline, Median: -35.5 L/min
  Pre-BD Peak Flow change from baseline, Min: -56 L/min
  Pre-BD Peak Flow change from baseline, Q1: -49 L/min
  Pre-BD Peak Flow change from baseline, Q3: 71 L/min
>=50% AEC reduction at Week 16
  Pre-BD FEF25-75 % change from baseline, Max: 41%
  Pre-BD FEF25-75 % change from baseline, Mean ± SD: 11.4 ± 25.76%
  Pre-BD FEF25-75 % change from baseline, Median: −2.2%
  Pre-BD FEF25-75 % change from baseline, Min: −5%
  Pre-BD FEF25-75 % change from baseline, Q1: −5%
  Pre-BD FEF25-75 % change from baseline, Q3: 41%
  Pre-BD FEF25-75 Observed, Max: 1030 mL/s
  Pre-BD FEF25-75 Observed, Mean ± SD: 710.0 ± 446.43 mL/s
  Pre-BD FEF25-75 Observed, Median: 900.0 mL/s
  Pre-BD FEF25-75 Observed, Min: 200 mL/s
  Pre-BD FEF25-75 Observed, Q1: 200 mL/s
  Pre-BD FEF25-75 Observed, Q3: 1030 mL/s
  Pre-BD FEF25-75 change from baseline, Max: 300 mL/s
  Pre-BD FEF25-75 change from baseline, Mean ± SD: 90.0 ± 181.93 mL/s
  Pre-BD FEF25-75 change from baseline, Median: -10.0 mL/s
  Pre-BD FEF25-75 change from baseline, Min: -20 mL/s
  Pre-BD FEF25-75 change from baseline, Q1: -20 mL/s
  Pre-BD FEF25-75 change from baseline, Q3: 300 mL/s
  Pre-BD FEV1 % change from baseline, Max: 62%
  Pre-BD FEV1 % change from baseline, Mean ± SD: 24.8 ± 32.69%
  Pre-BD FEV1 % change from baseline, Median: 9.7%
  Pre-BD FEV1 % change from baseline, Min: 2%
  Pre-BD FEV1 % change from baseline, Q1: 2%
  Pre-BD FEV1 % change from baseline, Q3: 62%
  Pre-BD FEV1 Observed, Max: 2110 mL
  Pre-BD FEV1 Observed, Mean ± SD: 1540.0 ± 678.16 mL
  Pre-BD FEV1 Observed, Median: 1720.0 mL
  Pre-BD FEV1 Observed, Min: 790 mL
  Pre-BD FEV1 Observed, Q1: 790 mL
  Pre-BD FEV1 Observed, Q3: 2110 mL
  Pre-BD FEV1 change from baseline, Max: 810 mL
  Pre-BD FEV1 change from baseline, Mean ± SD: 306.7 ± 436.16 mL
  Pre-BD FEV1 change from baseline, Median: 70.0 mL
  Pre-BD FEV1 change from baseline, Min: 40 mL
  Pre-BD FEV1 change from baseline, Q1: 40 mL
  Pre-BD FEV1 change from baseline, Q3: 810 mL
  Pre-BD FVC % change from baseline, Max: 32%
  Pre-BD FVC % change from baseline, Mean ± SD: 15.7 ± 14.81%
  Pre-BD FVC % change from baseline, Median: 11.4%
  Pre-BD FVC % change from baseline, Min: 3%
  Pre-BD FVC % change from baseline, Q1: 3%
  Pre-BD FVC % change from baseline, Q3: 32%
  Pre-BD FVC Observed, Max: 3330 mL
  Pre-BD FVC Observed, Mean ± SD: 2790.0 ± 497.59 mL
  Pre-BD FVC Observed, Median: 2690.0 mL
  Pre-BD FVC Observed, Min: 2350 mL
  Pre-BD FVC Observed, Q1: 2350 mL
  Pre-BD FVC Observed, Q3: 3330 mL
  Pre-BD FVC change from baseline, Max: 810 mL
  Pre-BD FVC change from baseline, Mean ± SD: 380.0 ± 379.87 mL
  Pre-BD FVC change from baseline, Median: 240.0 mL
  Pre-BD FVC change from baseline, Min: 90 mL
  Pre-BD FVC change from baseline, Q1: 90 mL
  Pre-BD FVC change from baseline, Q3: 810 mL
  Pre-BD Peak Flow % change from baseline, Max: 143%
  Pre-BD Peak Flow % change from baseline, Mean ± SD: 63.4 ± 69.42%
  Pre-BD Peak Flow % change from baseline, Median: 28.2%
  Pre-BD Peak Flow % change from baseline, Min: 18%
  Pre-BD Peak Flow % change from baseline, Q1: 18%
  Pre-BD Peak Flow % change from baseline, Q3: 143%
  Pre-BD Peak Flow Observed, Max: 382 L/min
  Pre-BD Peak Flow Observed, Mean ± SD: 260.7 ± 108.49 L/min
  Pre-BD Peak Flow Observed, Median: 227.0 L/min
  Pre-BD Peak Flow Observed, Min: 173 L/min
  Pre-BD Peak Flow Observed, Q1: 173 L/min
  Pre-BD Peak Flow Observed, Q3: 382 L/min
  Pre-BD Peak Flow change from baseline, Max: 225 L/min
  Pre-BD Peak Flow change from baseline, Mean ± SD: 100.7 ± 108.29 L/min
  Pre-BD Peak Flow change from baseline, Median: 50.0 L/min
  Pre-BD Peak Flow change from baseline, Min: 27 L/min
  Pre-BD Peak Flow change from baseline, Q1: 27 L/min
  Pre-BD Peak Flow change from baseline, Q3: 225 L/min
